# According to patent US20230389548A1, “MIXTURES OF PYRIMIDINES AS HERBICIDAL COMPOSITIONS” (SYNGENTA CROP PROTECTION AG, priority 2020, published 2023):
# Legend:
# Experiment in all cases: Post-emergence glasshouse spray test, visual percentage phytotoxicity after 13 days
# Assay type in all cases: in vivo
# [1] = test system: Abutilon threophrasti (ABUTH); details: B1
# Procedure: (§1) Seeds of Setaria faberi (SETFA), Echinochloa crus-galli (ECHCG), Digitaria sanguinalis (DIGSA), Lolium perenne (LOLPE), Alopecurus myosuroides (ALOMY), Chenopodium album (CHEAL), Ipomoea hederacea (IPOHE), Stellaria media (STEME), Abutilon threophrasti (ABUTH), Amaranthus retroflexus (AMARE) were sown in standard sterilised soil in pots. After cultivation for 8 days under controlled conditions in a glasshouse (at 24/19° C., day/night; 16 hours light; no humidity control), the plants were sprayed at 500 l/Ha with an aqueous spray solution derived from the formulation of the technical active ingredients in a small amount of acetone and a solvent and emulsifier mixture referred to as IF50 (11.12% Emulsogen EL360™+44.44% N-methylpyrrolidone+44.44% Dowanol DPM glycol ether), to create a 50 g/l solution which was then diluted using 0.2% Genapol XO80 (CAS Number: 9043-30-5) as diluent to give the desired final dose of test compound.
# (§2) Where active ingredients were applied as mixtures, aqueous spray solutions were prepared as above, containing both active ingredients.
# (§3) The test plants were then grown under controlled conditions in a glasshouse (at 24/18° C., day/night; 15 hours light; 50% humidity) and watered twice daily. After 13 days, the test was evaluated visually for percentage phytotoxicity to the plants (where 100=total damage to plant; 0=no damage to plant; and NC=not captured) when compared to control untreated plants. Two to four replicates were applied for each treatment in a randomised block test design.
# (§4) 22., E=X+Y−(X*Y/100), where
# (§5) X=average percent phytotoxicity of herbicide A when applied at a certain rate Y=average percent phytotoxicity using herbicide B when applied at a certain rate E=the expected effect of the mixture of herbicides A and B as calculated from the Colby formula.
# [2] = test system: Alopecurus myosuroides (ALOMY); details: for ALOMY percentage phytotoxicity: B1
# Procedure: as §1, §2, §3, §4, §5
# [3] = test system: Amaranthus retroflexus (AMARE); details: B1
# Procedure: as §1, §2, §3, §4, §5
# [4] = test system: Chenopodium album (CHEAL); details: B1
# Procedure: as §1, §2, §3, §4, §5
# [5] = test system: Digitaria sanguinalis (DIGSA); details: for DIGSA percentage phytotoxicity: B1
# Procedure: as §1, §2, §3, §4, §5
# [6] = test system: Echinochloa crus-galli (ECHCG); details: for ECHCG percentage phytotoxicity: B1; for Observed phytotoxicity ECHCG: B2.3.2
# Procedure: as §1, §2, §3, §4, §5
# [7] = test system: Ipomoea hederacea (IPOHE); details: for IPOHE percentage phytotoxicity: B1
# Procedure: as §1, §2, §3, §4, §5
# Lolium perenne (LOLPE) = details: for LOLPE percentage phytotoxicity: B1; for Observed phytotoxicity LOLPE: B2.3.4
# Procedure: as §1, §2, §3, §4, §5
# Setaria faberi (SETFA) = details: for SETFA percentage phytotoxicity: B1; for Observed phytotoxicity SETFA: B2.3.1
# Procedure: as §1, §2, §3, §4, §5
# Stellaria media (STEME) = details: for STEME percentage phytotoxicity: B1
# Procedure: as §1, §2, §3, §4, §5
smiles,measurement,setting,value
CCOC(=O)COc1ncccc1Oc1cc(-n2c(=O)cc(C(F)(F)F)n(C)c2=O)c(F)cc1Cl [B-V],ABUTH percentage phytotoxicity,[1]; 0.31 g/ha post-emergence,97%
same,ABUTH percentage phytotoxicity,[1]; 0.625 g/ha post-emergence,98%
same,ABUTH percentage phytotoxicity,[1]; 1.25 g/ha post-emergence,100%
same,ABUTH percentage phytotoxicity,[1]; 2.5 g/ha post-emergence,100%
same,ABUTH percentage phytotoxicity,[1]; 5 g/ha post-emergence,100%
same,ALOMY percentage phytotoxicity,[2]; 0.31 g/ha post-emergence,2%
same,ALOMY percentage phytotoxicity,[2]; 0.625 g/ha post-emergence,2%
same,ALOMY percentage phytotoxicity,[2]; 1.25 g/ha post-emergence,10%
same,ALOMY percentage phytotoxicity,[2]; 2.5 g/ha post-emergence,20%
same,ALOMY percentage phytotoxicity,[2]; 5 g/ha post-emergence,28%
same,Observed phytotoxicity ALOMY,"[2]; B2.3.5, 1.25 g/ha post-emergence",10%
same,AMARE percentage phytotoxicity,[3]; 0.31 g/ha post-emergence,98%
same,AMARE percentage phytotoxicity,[3]; 0.625 g/ha post-emergence,98%
same,AMARE percentage phytotoxicity,[3]; 1.25 g/ha post-emergence,100%
same,AMARE percentage phytotoxicity,[3]; 2.5 g/ha post-emergence,100%
same,AMARE percentage phytotoxicity,[3]; 5 g/ha post-emergence,100%
same,CHEAL percentage phytotoxicity,[4]; 0.31 g/ha post-emergence,85%
same,CHEAL percentage phytotoxicity,[4]; 0.625 g/ha post-emergence,96%
same,CHEAL percentage phytotoxicity,[4]; 1.25 g/ha post-emergence,93%
same,CHEAL percentage phytotoxicity,[4]; 2.5 g/ha post-emergence,100%
same,CHEAL percentage phytotoxicity,[4]; 5 g/ha post-emergence,100%
same,DIGSA percentage phytotoxicity,[5]; 0.31 g/ha post-emergence,13%
same,DIGSA percentage phytotoxicity,[5]; 0.625 g/ha post-emergence,43%
same,DIGSA percentage phytotoxicity,[5]; 1.25 g/ha post-emergence,88%
same,DIGSA percentage phytotoxicity,[5]; 2.5 g/ha post-emergence,99%
same,DIGSA percentage phytotoxicity,[5]; 5 g/ha post-emergence,100%
same,Observed phytotoxicity DIGSA,"[5]; B2.3.3, 0.625 g/ha post-emergence",43%
same,ECHCG percentage phytotoxicity,[6]; 0.31 g/ha post-emergence,5%
same,ECHCG percentage phytotoxicity,[6]; 0.625 g/ha post-emergence,3%
same,ECHCG percentage phytotoxicity,[6]; 1.25 g/ha post-emergence,9%
same,ECHCG percentage phytotoxicity,[6]; 2.5 g/ha post-emergence,23%
same,ECHCG percentage phytotoxicity,[6]; 5 g/ha post-emergence,65%
same,Observed phytotoxicity ECHCG,[6]; 0.625 g/ha post-emergence,3%
same,Observed phytotoxicity ECHCG,[6]; 1.25 g/ha post-emergence,9%
same,Observed phytotoxicity ECHCG,[6]; 2.5 g/ha post-emergence,23%
same,IPOHE percentage phytotoxicity,[7]; 0.31 g/ha post-emergence,58%
same,IPOHE percentage phytotoxicity,[7]; 0.625 g/ha post-emergence,70%
same,IPOHE percentage phytotoxicity,[7]; 1.25 g/ha post-emergence,100%
same,IPOHE percentage phytotoxicity,[7]; 2.5 g/ha post-emergence,100%
same,IPOHE percentage phytotoxicity,[7]; 5 g/ha post-emergence,100%
same,Observed phytotoxicity IPOHE,"[7]; B2.3.6, 0.3125 g/ha post-emergence",58%
same,LOLPE percentage phytotoxicity,Lolium perenne (LOLPE); 0.31 g/ha post-emergence,2%
same,LOLPE percentage phytotoxicity,Lolium perenne (LOLPE); 0.625 g/ha post-emergence,0%
same,LOLPE percentage phytotoxicity,Lolium perenne (LOLPE); 1.25 g/ha post-emergence,8%
same,LOLPE percentage phytotoxicity,Lolium perenne (LOLPE); 2.5 g/ha post-emergence,15%
same,LOLPE percentage phytotoxicity,Lolium perenne (LOLPE); 5 g/ha post-emergence,25%
same,Observed phytotoxicity LOLPE,Lolium perenne (LOLPE); 1.25 g/ha post-emergence,8%
same,Observed phytotoxicity LOLPE,Lolium perenne (LOLPE); 2.5 g/ha post-emergence,15%
same,SETFA percentage phytotoxicity,Setaria faberi (SETFA); 0.31 g/ha post-emergence,30%
same,SETFA percentage phytotoxicity,Setaria faberi (SETFA); 0.625 g/ha post-emergence,38%
same,SETFA percentage phytotoxicity,Setaria faberi (SETFA); 1.25 g/ha post-emergence,85%
same,SETFA percentage phytotoxicity,Setaria faberi (SETFA); 2.5 g/ha post-emergence,99%
same,SETFA percentage phytotoxicity,Setaria faberi (SETFA); 5 g/ha post-emergence,100%
same,Observed phytotoxicity SETFA,Setaria faberi (SETFA); 0.625 g/ha post-emergence,38%
same,Observed phytotoxicity SETFA,Setaria faberi (SETFA); 1.25 g/ha post-emergence,85%
same,STEME percentage phytotoxicity,Stellaria media (STEME); 0.31 g/ha post-emergence,25%
same,STEME percentage phytotoxicity,Stellaria media (STEME); 0.625 g/ha post-emergence,83%
same,STEME percentage phytotoxicity,Stellaria media (STEME); 1.25 g/ha post-emergence,83%
same,STEME percentage phytotoxicity,Stellaria media (STEME); 2.5 g/ha post-emergence,100%
same,STEME percentage phytotoxicity,Stellaria media (STEME); 5 g/ha post-emergence,100%
same,Observed phytotoxicity STEME,"Stellaria media (STEME); B2.3.7, 0.3125 g/ha post-emergence",25%
